Reference: patent publication US10662203B2, “Pyrido[2,3-b]indole compounds for the treatment and prophylaxis of bacterial infection” (Hoffmann-La Roche Inc., priority 2017, dated 2020)
≈ marks a conversion by molar mass, not a printed value. Read-outs that look alike come from different tables or passages of the source.

Key:
S. aureus (ATCC29213) = experiment: 50% growth inhibitory concentration (IC50) determination assay; type: cell-based; conditions: Staphylococcus aureus, Iso-Sensitest broth, 0.098 = detection limit
Procedure, shortened: (§1)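 Each strain, inoculated at ~5×10^5 CFU/mL in Iso-Sensitest broth, faces a two-fold compound series spanning 50 to 0.097 μM final concentration. Incubation proceeds at 35±2° C, and cell growth is tracked by absorbance at λ=600 nm every 20 minutes over 16 h.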

[1] = test system: K. pneumoniae (ATCC10031); experiment: as above; type: cell-based; conditions: Klebsiella pneumoniae, Iso-Sensitest broth, 0.098 = detection limit
Procedure, shortened: as §1

A. baumannii (ATCC17978) = experiment: as above; type: cell-based; conditions: Acinetobacter baumannii, ATCC17978, A. baumannii ATCC17978; Iso-Sensitest broth; 0.098 = detection limit
Procedure, shortened: as §1

[2] = Single dose PK study (SDPK) in female CD-1 mouse; type: in vivo; conditions: MOUSE IV; for clearance: female, CD-1, plasma, read-out: CL total
Method: Single Dose PK Study (SDPK) in Female CD-1 Mouse: The single dose PK in female CD-1 mouse was performed to assess compound's pharmacokinetic properties. One group of animals were dosed via bolus intravenous (IV) of the respective compound. Blood samples (approximately 30 μL) were collected via saphenous vein at 5 mins, 15 min, 30 min, 1 hr, 2 hr, 4 hr and 7 hr. For last time point (24 hr), samples were collected via cardiac puncture while the mouse was under anesthesia. Blood samples were placed into tubes containing EDTA-K2 anticoagulant (2 μL of 0.5M per tube) and centrifuged at 3000 rpm for 10 minutes at 4° C. within half an hour to separate plasma from the samples. Following centrifugation, plasma samples were stored in polypropylene tubes, quick frozen over dry ice and kept at −70±10° C. until LC/MS/MS analysis. The pharmacokinetic parameters were calculated using non-compartmental module of WinNonlin® Professional 6.4.

[3] = Cytotoxicity assay (HepG2, CellTiter-Blue cell viability); type: cell-based; conditions: human; HepG2 cells, 3 days treatment; "*": the detection limit; read-out: CC50
Procedure, shortened: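 HepG2 cells (1.2×10^4 per well) exposed to compounds for 3 days; viability then read by CellTiter-Blue fluorescence after 3 h at 37 °C. CC50 from four-parameter logistic fit.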

[4] = Lyophilisation solubility assay (LYSA); type: physicochemical; conditions: phosphate buffer, pH 6.5, aqueous buffer, thermodynamic from solid, 0.05 M phosphate buffer, HPLC-UV
Procedure, shortened: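 Duplicate samples made from 10 mM DMSO stock. DMSO evaporated and the residue taken up in 0.05 M phosphate buffer, pH 6.5, stirred 1 h and shaken 2 h, then left overnight. Filtrate and its 1/10 dilution quantified by HPLC-UV.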

| IC50 (S. aureus (ATCC29213)) | IC50 [1] | IC50 (A. baumannii (ATCC17978)) | AUC total ([2]; 1.0 mg/kg-Solution) | clearance ([2]; 1.0 mg/kg-Solution) | AUC total ([2]; 0.7 mg/kg-Solution) | clearance ([2]; 0.7 mg/kg-Solution) | solubility thermodynamic [4] | SMILES | CC50 at 3 days [3] |
| --- | --- | --- | --- | --- | --- | --- | --- | --- | --- |
| < 0.098 µM | < 0.098 µM | 0.105 µM | 235.0 ng·h/mL | 69.6 mL/min/kg |  |  | 58 µg/mL (≈ 104 µM) | CNc1cc(F)c(F)c2c1[nH]c1ncc(-c3cnc4c(c3)c(=O)c(C(=O)O)cn4C)c(N3CC4[C@H](CCN4C)C3)c12 (some centres unmarked) [Example 1.192] |  |
| < 0.098 µM | < 0.098 µM | 0.102 µM | 177.4 ng·h/mL | 98.4 mL/min/kg |  |  | 25 µg/mL (≈ 43.6 µM) | CNc1cc(F)c(F)c2c1[nH]c1ncc(-c3cnc4c(c3)c(=O)c(C(=O)O)cn4C)c(N3CC[C@H]4CCN(C)C4C3)c12 (some centres unmarked) [Example 1.196] |  |
| < 0.098 µM | < 0.098 µM | 0.16 µM | 167.5 ng·h/mL | 98.1 mL/min/kg |  |  |  | CNc1cc(F)c(F)c2c1[nH]c1ncc(-c3cnc4c(c3)c(=O)c(C(=O)O)cn4C)c(N3CCC4(CN(C)CCO4)C3)c12 (centres unmarked) [Example 1.202] |  |
| < 0.098 µM | < 0.098 µM | 0.095 µM | 196.3 ng·h/mL | 84.3 mL/min/kg |  |  |  | CNc1cc(F)c(F)c2c1[nH]c1ncc(-c3cnc4c(c3)c(=O)c(C(=O)O)cn4C)c(N3CC4[C@@H](C3)OCCN4C)c12 (some centres unmarked) [Example 1.241] |  |
| < 0.098 µM | < 0.098 µM | 0.049 µM | 190.5 ng·h/mL | 86.7 mL/min/kg |  |  | 119 µg/mL (≈ 213 µM) | CNc1cc(F)c(F)c2c1[nH]c1ncc(-c3cnc4c(c3)c(=O)c(C(=O)O)cn4C)c(N3C[C@H]4CCN(C)[C@H]4C3)c12 [Example 3.08A] |  |

More lines, now with the values behind:

| SMILES | IC50 (S. aureus (ATCC29213)) | IC50 [1] | IC50 (A. baumannii (ATCC17978)) | AUC total ([2]; 1.0 mg/kg-Solution) | clearance ([2]; 1.0 mg/kg-Solution) | AUC total ([2]; 0.7 mg/kg-Solution) | clearance ([2]; 0.7 mg/kg-Solution) | solubility thermodynamic [4] | CC50 at 3 days [3] |
| --- | --- | --- | --- | --- | --- | --- | --- | --- | --- |
| CCn1cc(C(=O)O)c(=O)c2cc(-c3cnc4[nH]c5c(NC)cc(F)c(F)c5c4c3N3CC4CC3CO4)cnc21 (centres unmarked) [Example 1.05] | < 0.098 µM | < 0.098 µM | 0.725 µM | 162.7 ng·h/mL | 100 mL/min/kg |  |  |  |  |
| CNc1cc(F)c(F)c2c1[nH]c1ncc(-c3cnc4c(c3)c(=O)c(C(=O)O)cn4CCN(C)C)c(N(C)C)c12 [Example 1.22] | < 0.098 µM | < 0.098 µM | 0.118 µM | 179.9 ng·h/mL | 91.3 mL/min/kg |  |  |  |  |
| CNc1cc(F)c(F)c2c1[nH]c1ncc(-c3cnc4c(c3)c(=O)c(C(=O)O)cn4C)c(N3CCC(O)CC3)c12 [Example 1.43] | < 0.098 µM | < 0.098 µM | 0.663 µM | 235.1 ng·h/mL | 66.3 mL/min/kg |  |  |  | 39300 nM |
| CNc1cc(F)cc2c1[nH]c1ncc(-c3cnc4c(c3)c(=O)c(C(=O)O)cn4NC)c(N3CCOCC3)c12 [Example 1.52] | < 0.098 µM | < 0.098 µM | 0.233 µM | 305.8 ng·h/mL | 57.4 mL/min/kg |  |  |  |  |
| CNc1cc(F)cc2c1[nH]c1ncc(-c3cnc4c(c3)c(=O)c(C(=O)O)cn4CC(C)O)c(N3CCOCC3)c12 (centres unmarked) [Example 1.53] | < 0.098 µM | < 0.098 µM | 0.764 µM | 211.3 ng·h/mL | 83.5 mL/min/kg |  |  |  | > 100000 nM |
| CNc1c(F)c(F)cc2c1[nH]c1ncc(-c3cnc4c(c3)c(=O)c(C(=O)O)cn4C3CCNC3)c(N(C)C)c12 (centres unmarked) [Example 1.55] | 0.101 µM |  | 0.334 µM | 165.9 ng·h/mL | 98.7 mL/min/kg |  |  |  | 49800 nM |
| CNc1cc(F)c(F)c2c1[nH]c1ncc(-c3cnc4c(c3)c(=O)c(C(=O)O)cn4CC(N)C(C)C)c(N3CCOCC3)c12 (centres unmarked) [Example 1.57] | < 0.098 µM |  | 0.198 µM |  |  | 190.8 ng·h/mL | 84.6 mL/min/kg |  | 35900 nM |
| CNc1cc(F)c(F)c2c1[nH]c1ncc(-c3cnc4c(c3)c(=O)c(C(=O)O)cn4C)c(N3CC(N(C)C)C4(CC4)C3)c12 (centres unmarked) [Example 1.207] | 0.101 µM | < 0.098 µM | 0.203 µM | 188.3 ng·h/mL | 85.7 mL/min/kg |  |  | 73 µg/mL (≈ 127 µM) |  |
